The text below walks through data of PMC9683047, “Design, synthesis and biological evaluation of 4-aminoquinoline derivatives as receptor-interacting protein kinase 2 (RIPK2) inhibitors” (Journal of Enzyme Inhibition and Medicinal Chemistry, 2022).

Common to all, as to format: biochemical
One assay deals with T1, Lyn(h) (Homo sapiens, UniProt P07948).
T1 construct: purchased Eurofins (Millipore) KinaseProfiler Diversity Panel
The experiment in a line: Kinase selectivity panel: Lyn. The protocol: (§1) To confirm the anti-inflammatory effect was caused by RIPK2 inhibition, compound 14 was subjected to kinase selectivity evaluation (Figure 4). Kinase selectivity profile of compound 14 as shown by the diversity kinase Panel screen against 70 kinases assayed at 1 µM. Among all tested 70 kinases, only five were inhibited over 90% at 1 µM including Fyn, Lyn, BTK, Abl and RIPK2. Three kinases including KDR, CDK9 and LOK were inhibited 50–90% at 1 µM.

The target of a further assay is T2, Mnk2(h) (Homo sapiens, UniProt Q9HBH9).
T2 construct: purchased Eurofins (Millipore) KinaseProfiler Diversity Panel
The experiment in a line: Kinase selectivity panel: Mnk2. The protocol: as §1

In another assay the target is T3, PKCθ(h) (Homo sapiens, UniProt Q04759).
T3 construct: purchased Eurofins (Millipore) KinaseProfiler Diversity Panel
Description: Kinase selectivity panel: PKCθ. The protocol:
as §1

The target of the next assay is T4, Rsk1(h) (Homo sapiens, UniProt Q15418).
T4 construct: purchased Eurofins (Millipore) KinaseProfiler Diversity Panel
The experiment in a line: Kinase selectivity panel: Rsk1. The following applies: 1 µM. The protocol: as §1

Another assay concerns the target T5, SAPK2a(h) (Homo sapiens, UniProt Q16539).
T5 construct: purchased Eurofins (Millipore) KinaseProfiler Diversity Panel
Description: Kinase selectivity panel: SAPK2a. The protocol:
as §1

In another assay the target is T6, IRAK4(h) (Homo sapiens, UniProt Q9NWZ3).
T6 construct: purchased Eurofins (Millipore) KinaseProfiler Diversity Panel
The experiment in a line: Kinase selectivity panel: IRAK4. The protocol:
as §1

The next assay addresses T7, MSK2(h) (Homo sapiens, UniProt O75676).
T7 construct: purchased Eurofins (Millipore) KinaseProfiler Diversity Panel
Description: Kinase selectivity panel: MSK2. The protocol: as §1

Another assay concerns the target T8, IKKε(h) (Homo sapiens, UniProt Q14164).
T8 construct: purchased Eurofins (Millipore) KinaseProfiler Diversity Panel
Description: Kinase selectivity panel: IKKε. The protocol: as §1

Another assay has as its target T9, TAK1(h) (Homo sapiens, UniProt O43318).
T9 construct: purchased Eurofins (Millipore) KinaseProfiler Diversity Panel
Description: Kinase selectivity panel: TAK1. The following applies: 1 µM. The protocol:
as §1

In the next assay the target is T10, CaMKI(h) (Homo sapiens, UniProt Q14012).
T10 construct: purchased Eurofins (Millipore) KinaseProfiler Diversity Panel
The experiment in a line: Kinase selectivity panel: CaMKI. The note with it: 1 µM. The protocol:
as §1

In a further assay the target is T11, Fyn(h) (Homo sapiens, UniProt P06241).
T11 construct: purchased Eurofins (Millipore) KinaseProfiler Diversity Panel
The experiment in a line: Kinase selectivity panel: Fyn. The protocol:
as §1

For a further assay, the target named is T12, NEK2(h) (Homo sapiens, UniProt P51955).
T12 construct: purchased Eurofins (Millipore) KinaseProfiler Diversity Panel
Description: Kinase selectivity panel: NEK2. The following applies: 1 µM. The protocol:
as §1

T11 sequence (P06241 whole entry): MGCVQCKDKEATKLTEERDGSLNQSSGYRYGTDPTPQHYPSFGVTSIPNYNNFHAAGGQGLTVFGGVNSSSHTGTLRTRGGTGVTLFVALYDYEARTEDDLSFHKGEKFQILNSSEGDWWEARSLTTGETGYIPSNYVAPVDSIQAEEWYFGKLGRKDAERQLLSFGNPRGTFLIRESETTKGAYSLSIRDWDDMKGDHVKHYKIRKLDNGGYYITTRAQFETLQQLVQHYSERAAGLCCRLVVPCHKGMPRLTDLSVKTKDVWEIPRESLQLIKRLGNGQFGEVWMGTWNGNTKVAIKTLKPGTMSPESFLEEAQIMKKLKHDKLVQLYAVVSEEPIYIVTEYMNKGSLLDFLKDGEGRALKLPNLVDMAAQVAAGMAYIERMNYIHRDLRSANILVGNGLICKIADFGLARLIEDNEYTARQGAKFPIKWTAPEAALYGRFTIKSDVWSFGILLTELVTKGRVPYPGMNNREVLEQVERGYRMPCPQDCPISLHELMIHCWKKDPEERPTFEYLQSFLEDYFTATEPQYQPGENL
T1 sequence (P07948 whole entry): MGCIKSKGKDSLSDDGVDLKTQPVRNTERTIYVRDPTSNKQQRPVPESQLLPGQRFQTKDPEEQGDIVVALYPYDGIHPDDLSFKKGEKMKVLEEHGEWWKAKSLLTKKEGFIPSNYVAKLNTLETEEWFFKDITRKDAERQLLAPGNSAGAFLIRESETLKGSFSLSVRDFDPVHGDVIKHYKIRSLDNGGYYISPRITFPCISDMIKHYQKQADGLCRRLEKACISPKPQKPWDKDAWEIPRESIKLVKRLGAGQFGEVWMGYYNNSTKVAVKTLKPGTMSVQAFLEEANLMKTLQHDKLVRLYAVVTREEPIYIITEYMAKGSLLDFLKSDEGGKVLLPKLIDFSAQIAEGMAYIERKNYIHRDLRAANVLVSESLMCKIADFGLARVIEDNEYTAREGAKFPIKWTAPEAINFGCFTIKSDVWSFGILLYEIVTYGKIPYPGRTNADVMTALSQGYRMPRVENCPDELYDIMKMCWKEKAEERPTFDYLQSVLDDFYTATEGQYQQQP
T6 sequence (Q9NWZ3 whole entry): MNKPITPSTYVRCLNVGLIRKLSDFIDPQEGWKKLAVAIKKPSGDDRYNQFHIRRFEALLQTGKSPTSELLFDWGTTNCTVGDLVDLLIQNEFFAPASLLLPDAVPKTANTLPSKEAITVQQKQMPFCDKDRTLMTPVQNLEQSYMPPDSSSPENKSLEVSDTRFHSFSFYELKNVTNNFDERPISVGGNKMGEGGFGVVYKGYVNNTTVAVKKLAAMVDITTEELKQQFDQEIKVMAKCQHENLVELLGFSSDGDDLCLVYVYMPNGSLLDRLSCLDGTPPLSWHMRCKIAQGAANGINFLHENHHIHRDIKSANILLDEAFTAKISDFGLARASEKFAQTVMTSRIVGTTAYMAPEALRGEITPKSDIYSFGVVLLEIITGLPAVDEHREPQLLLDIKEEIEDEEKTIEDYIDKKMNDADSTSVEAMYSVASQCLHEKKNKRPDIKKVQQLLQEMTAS
T7 sequence (O75676 whole entry): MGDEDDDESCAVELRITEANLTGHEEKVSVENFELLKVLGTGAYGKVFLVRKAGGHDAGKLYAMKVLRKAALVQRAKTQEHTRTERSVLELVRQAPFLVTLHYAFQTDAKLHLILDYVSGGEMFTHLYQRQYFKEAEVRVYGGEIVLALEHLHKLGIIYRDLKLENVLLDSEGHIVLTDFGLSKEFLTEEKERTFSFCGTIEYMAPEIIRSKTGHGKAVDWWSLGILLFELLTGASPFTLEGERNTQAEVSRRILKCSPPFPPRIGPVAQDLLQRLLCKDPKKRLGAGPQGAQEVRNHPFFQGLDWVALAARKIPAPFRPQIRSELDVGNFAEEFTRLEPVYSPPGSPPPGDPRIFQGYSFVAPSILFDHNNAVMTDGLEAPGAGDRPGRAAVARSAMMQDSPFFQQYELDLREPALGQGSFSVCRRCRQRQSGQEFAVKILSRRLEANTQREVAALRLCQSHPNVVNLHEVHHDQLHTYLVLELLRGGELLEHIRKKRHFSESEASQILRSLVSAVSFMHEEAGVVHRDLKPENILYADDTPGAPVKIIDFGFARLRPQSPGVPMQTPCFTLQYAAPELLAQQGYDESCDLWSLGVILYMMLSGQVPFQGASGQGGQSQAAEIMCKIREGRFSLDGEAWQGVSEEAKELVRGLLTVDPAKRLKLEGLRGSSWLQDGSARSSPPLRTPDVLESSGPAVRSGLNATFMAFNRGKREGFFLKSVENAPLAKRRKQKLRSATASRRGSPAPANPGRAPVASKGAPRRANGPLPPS
T10 sequence (Q14012 whole entry): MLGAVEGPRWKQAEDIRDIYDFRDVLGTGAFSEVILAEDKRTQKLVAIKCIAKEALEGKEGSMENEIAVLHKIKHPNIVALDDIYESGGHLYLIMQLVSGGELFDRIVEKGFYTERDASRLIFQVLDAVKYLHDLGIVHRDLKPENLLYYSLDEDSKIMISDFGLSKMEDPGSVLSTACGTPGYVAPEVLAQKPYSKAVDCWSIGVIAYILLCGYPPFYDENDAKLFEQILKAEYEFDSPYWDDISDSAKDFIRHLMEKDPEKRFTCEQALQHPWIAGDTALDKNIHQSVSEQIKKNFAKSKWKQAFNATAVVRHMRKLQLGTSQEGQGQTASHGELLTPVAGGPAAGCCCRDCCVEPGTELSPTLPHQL
T8 sequence (Q14164 whole entry): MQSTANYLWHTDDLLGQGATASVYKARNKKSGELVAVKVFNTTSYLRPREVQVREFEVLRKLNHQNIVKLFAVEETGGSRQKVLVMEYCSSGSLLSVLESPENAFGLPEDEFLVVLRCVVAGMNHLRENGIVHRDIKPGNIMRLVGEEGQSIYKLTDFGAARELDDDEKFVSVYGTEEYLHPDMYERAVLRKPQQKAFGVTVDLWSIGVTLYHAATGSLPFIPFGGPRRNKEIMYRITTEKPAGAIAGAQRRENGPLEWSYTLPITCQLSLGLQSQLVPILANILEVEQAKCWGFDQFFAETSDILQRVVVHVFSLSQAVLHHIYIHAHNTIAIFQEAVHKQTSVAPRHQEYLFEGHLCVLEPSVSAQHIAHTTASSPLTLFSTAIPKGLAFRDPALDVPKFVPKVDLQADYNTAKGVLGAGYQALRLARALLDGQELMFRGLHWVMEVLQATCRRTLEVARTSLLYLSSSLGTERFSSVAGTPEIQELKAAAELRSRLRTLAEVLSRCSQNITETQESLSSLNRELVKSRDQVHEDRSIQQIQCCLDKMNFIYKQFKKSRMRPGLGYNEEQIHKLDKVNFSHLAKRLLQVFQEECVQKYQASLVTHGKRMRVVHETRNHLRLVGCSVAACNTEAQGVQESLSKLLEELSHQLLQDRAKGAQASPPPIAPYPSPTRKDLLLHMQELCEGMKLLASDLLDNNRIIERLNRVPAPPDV
T3 sequence (Q04759 whole entry): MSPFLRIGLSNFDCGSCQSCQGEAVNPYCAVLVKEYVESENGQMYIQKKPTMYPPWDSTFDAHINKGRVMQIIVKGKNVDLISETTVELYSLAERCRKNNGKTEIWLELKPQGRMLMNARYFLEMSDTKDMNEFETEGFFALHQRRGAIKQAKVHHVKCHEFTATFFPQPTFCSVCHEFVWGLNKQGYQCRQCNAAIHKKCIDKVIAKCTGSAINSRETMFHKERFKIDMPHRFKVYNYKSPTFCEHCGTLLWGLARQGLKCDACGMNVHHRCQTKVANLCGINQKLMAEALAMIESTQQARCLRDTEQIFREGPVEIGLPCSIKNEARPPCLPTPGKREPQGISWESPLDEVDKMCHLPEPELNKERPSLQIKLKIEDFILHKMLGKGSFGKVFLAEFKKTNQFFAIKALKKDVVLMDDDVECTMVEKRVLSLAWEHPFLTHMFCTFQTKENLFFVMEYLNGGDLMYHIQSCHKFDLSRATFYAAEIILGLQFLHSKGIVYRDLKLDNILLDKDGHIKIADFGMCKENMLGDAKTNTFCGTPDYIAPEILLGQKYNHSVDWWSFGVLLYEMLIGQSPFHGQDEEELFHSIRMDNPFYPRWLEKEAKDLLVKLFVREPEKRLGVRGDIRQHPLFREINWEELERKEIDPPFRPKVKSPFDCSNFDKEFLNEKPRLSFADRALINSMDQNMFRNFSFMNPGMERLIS
T5 sequence (Q16539 whole entry): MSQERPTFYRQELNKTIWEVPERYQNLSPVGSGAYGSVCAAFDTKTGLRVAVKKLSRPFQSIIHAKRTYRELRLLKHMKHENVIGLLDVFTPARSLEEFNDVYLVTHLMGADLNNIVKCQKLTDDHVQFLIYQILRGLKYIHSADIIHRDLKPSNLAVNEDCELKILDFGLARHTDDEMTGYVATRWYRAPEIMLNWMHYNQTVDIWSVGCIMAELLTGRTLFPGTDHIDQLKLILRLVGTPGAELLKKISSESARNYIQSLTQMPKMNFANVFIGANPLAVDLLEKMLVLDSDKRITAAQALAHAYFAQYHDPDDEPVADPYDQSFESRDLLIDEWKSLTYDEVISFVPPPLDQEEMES
T12 sequence (P51955 whole entry): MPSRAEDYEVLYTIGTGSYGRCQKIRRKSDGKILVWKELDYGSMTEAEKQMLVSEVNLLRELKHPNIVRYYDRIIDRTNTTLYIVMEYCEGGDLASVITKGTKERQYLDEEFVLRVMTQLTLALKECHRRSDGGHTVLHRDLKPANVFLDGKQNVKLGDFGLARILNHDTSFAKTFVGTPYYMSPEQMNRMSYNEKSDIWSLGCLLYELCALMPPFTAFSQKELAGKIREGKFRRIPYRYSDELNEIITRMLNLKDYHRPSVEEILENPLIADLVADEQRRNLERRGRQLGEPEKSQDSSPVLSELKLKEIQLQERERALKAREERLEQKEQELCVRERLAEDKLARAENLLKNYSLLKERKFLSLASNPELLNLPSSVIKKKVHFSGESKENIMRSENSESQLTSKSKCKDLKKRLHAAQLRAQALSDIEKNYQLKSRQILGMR

Regarding `c1cc(-c2ccc3nccc(Nc4ccc5scnc5c4)c3c2)ccn1` [Compound 14, N-(6-(pyridin-4-yl)quinolin-4-yl)benzo[d]thiazol-5-amine], the “Remaining Lyn kinase activity (% of control)” value at Lyn(h) (1 µM) was determined as 3. For the same compound, the inhibition at 1 µM against Lyn(h) (at 1 µM) and against Fyn(h) (at 1 µM) was above 90% in each case. Besides, the “Mnk2 remaining activity (% of control) with compound 14 at 1 µM” value at Mnk2(h) is 68. Moreover, the “remaining kinase activity (% of control) at 1 µM” value on PKCθ(h) is 74. At Rsk1(h), the “Rsk1 kinase activity remaining (% of control)” value stood at 98. At SAPK2a(h), the “% remaining SAPK2a activity with compound 14 at 1 µM” value turned out to be 54. Also, on IRAK4(h), the “Percent remaining IRAK4 activity with compound 14 at 1 µM” value is 107. Besides, on MSK2(h), the “MSK2 remaining kinase activity (% of control) with compound 14 at 1 µM” value turned out to be 107. Further, on IKKε(h), the “Remaining IKKε activity at 1 µM (% of control)” value turned out to be 106. Besides, the “Remaining kinase activity (% of control)” value on TAK1(h) was 90. On CaMKI(h), the “percent kinase activity remaining” value is on record as 97. Also, the “Fyn remaining activity (%)” value at Fyn(h) (1 µM) worked out at 0. Moreover, the “percent remaining NEK2 kinase activity with compound 14” value at NEK2(h) is on record as 88.
